Measured values: patent US10406126B2, “ALDH2 activator” (Eisai R&D Management Co., Ltd., priority 2018, dated 2019)

Key:
[1] = target: T1, aldehyde dehydrogenase 2 (ALDH2) (Homo sapiens, UniProt P05091); assay: Effects of compounds on the acetaldehyde oxidation rate by ALDH2 (PicoProbe Aldehyde dehydrogenase Activity Assay Kit); format: biochemical; details: read-out: acetaldehyde oxidation rate (rate in the absence of the compounds = 100); for activity at 1 µM: compound concentration 1 μM; for activity at 10 µM: compound concentration 10 μM
T1 construct: purchased ATGen Inc
T1 sequence (P05091 18-517): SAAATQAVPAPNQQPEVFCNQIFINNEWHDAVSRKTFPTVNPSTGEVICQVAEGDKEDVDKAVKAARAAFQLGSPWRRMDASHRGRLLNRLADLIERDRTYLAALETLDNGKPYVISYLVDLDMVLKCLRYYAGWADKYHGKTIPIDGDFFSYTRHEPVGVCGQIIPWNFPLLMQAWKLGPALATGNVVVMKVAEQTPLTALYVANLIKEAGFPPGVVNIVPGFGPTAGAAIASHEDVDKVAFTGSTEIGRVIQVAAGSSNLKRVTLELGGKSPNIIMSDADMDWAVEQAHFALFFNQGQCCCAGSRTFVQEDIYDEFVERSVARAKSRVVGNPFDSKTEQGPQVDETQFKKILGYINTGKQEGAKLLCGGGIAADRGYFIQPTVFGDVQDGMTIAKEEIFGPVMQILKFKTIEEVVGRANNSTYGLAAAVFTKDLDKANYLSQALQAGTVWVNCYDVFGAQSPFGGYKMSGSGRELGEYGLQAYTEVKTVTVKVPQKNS
Description: (Effects of Compounds on the Acetaldehyde Oxidation Rate by Aldehyde Dehydrogenase 2 (ALDH2))
Effects of compounds on the acetaldehyde oxidation rate by aldehyde dehydrogenase 2 (ALDH2) were evaluated using a method known in the art. Specifically, the test was performed using a commercially available kit, PicoProbe™ Aldehyde dehydrogenase Activity Assay Kit (from BioVision Inc.) in accordance with the product's instruction. Reagents as described below were sequentially added to each well in a 384-well plate with a pipette.
1. 10 μL of the commercially available ALDH2 enzyme (from ATGen Inc.) dissolved in ALDH assay Buffer so as to obtain a concentration of 1 μg/mL.
2. 10 μL, of 30 μM or 3 μM compound solution (containing 3% DMSO) prepared with ALDH assay Buffer
3. […] of Reaction mix consisting of 7.82 μL of ALDH assay Buffer, 0.55 μL of PicoProbe, 0.27 μL of Substrate Mix, and 1.36 μL of Acetaldehyde
Before addition of 3, the plate was incubated at room temperature for 5 minutes. After addition of 3, fluorescence was determined using EnVision 2101 Multilabel Reader (from PerkinElmer Inc.) at room, temperature over 60 minutes. The measurements were taken at interval of 2 minutes.
Fluorescence was detected at an excitation wavelength of 535 nm and an emission wavelength of587 nm.
Table 1 lists the oxidation rates when the compounds are added, in which the rates are calculated on the basis of the assumption that the acetaldehyde oxidation rates in the absence of the compounds are 100. The rate for Comparative Example 1 compound was normalized to a value of “175” for 10 μM of the compound concentration while the rate for Comparative Example 1 compound was normalized to a value of “137” for 1 μM of the compound concentration.

[2] = Description: (Comparison of Amounts of Produced Reactive Metabolites)
Ability of compounds to produce reactive metabolites was evaluated, using the method as described below. Cytochrome P450 (CYP) dependent metabolism was initiated, by adding 1 mg/mL human liver microsome, 0.2 mmol/L compound, and 0.1 mmol/L RI-labeled capture agent, and lastly 1 mmol/L NADPH to 100 mM phosphate buffer (pH 7.4). After incubation at 37° C. for 60 minutes, the reaction mixture (0.1 mL) and an equal volume of acetonitrile were added to stop the metabolic reaction. After 0.8 mL of water was added to the supernatant from centrifugation, 0.5 mL of the resulting solution was injected into HPLC connected to a radio detector and a covalent complex between the reactive metabolite and Relabeled capture agent was quantitatively analyzed for its RI intensity.

[3] = system: mechanical allodynia induced by carrageenan in C57 BL/6J mice; assay: Suppressive effect of pain induced by carrageenan (von Frey withdrawal score); format: in vivo, mouse; details: mean ± S.E.
Description: (Suppressive Effect of Pain Induced by Carrageenan)
This experiment was earned out with reference to Science Translational Medicine 6, 251 r118 (2014). Male C57 BL/6J mice (Charles River Japan) of 7-week-old were used. Carrageenan was subcutaneously administered to the mouse by intraplantar injection of the left hind paw to induce mechanical allodynia in the footpad. Mechanical stimulus-evoked withdrawal response at 180 min after the induction was assessed by applying a von Frey filament (ascending bending force 0.16 g) to the footpad, of the hind paw. The filament was perpendicularly applied to the footpad so that the filament was bent for 6 second. The withdrawal response was scored in three stages (0: no response or startle response (moving paw without lifting); 1: lifting of paw; 2: licking or shaking of paw). The mouse was stimulated ten times and the sum of the scores of the ten stimulation (withdrawal score) was calculated.
The compound of Example 1 was dissolved in DMSO/5% glucose solution for injection (1:1 by volume ratio). […]
Wilcoxon rank sum test was used to compare the vehicle-treated group and the Example 1-treated group. The significance level was calculated as 5%, divided into less than 5% (p<0.05) and less than 1% (p<0.01). […]

Compound	activity at 1 µM [1]	activity at 10 µM [1]	amount of reactive metabolites produced, in words [2]	Total pain-related score (withdrawal score) ([3]; 180 min after carrageenan induction, 12 mg/kg s.c. three times, **p < 0.01 vs vehicle)	Total pain-related score (withdrawal score) ([3]; Pre: before carrageenan induction)
COCc1ccc(CNC(=O)c2ccccc2Cl)cc1F [Example 6, 2-Chloro-N-{[3-fluoro-4-(methoxymethyl)phenyl]methyl}benzamide]	108%	148%	–	–	–
COCc1cc(F)c(CNC(=O)c2c(Cl)cccc2Cl)cc1F [Example 2, 2,6-Dichloro-N-{[3,6-difluoro-4-(methoxymethyl)phenyl]methyl}benzamide]	125%	168%	–	–	–
O=C(NCc1ccc2c(c1)OCCO2)c1c(Cl)cccc1Cl [Comparative Example 2, 2,6-dichloro-N-[(2,3-dihydro-1,4-benzodioxin-6-yl)methyl]benzamide, reference compound]	125%	164%	–	–	–
COCc1ccc(CNC(=O)c2c(C)cccc2C)cc1F [Example 11, N-{[3-Fluoro-4-(methoxymethyl)phenyl]methyl}-2,6-dimethylbenzamide]	117%	156%	–	–	–
COCc1ccc(CNC(=O)c2c(F)cccc2Br)cc1F [Example 8, 2-Bromo-6-fluoro-N-{[3-fluoro-4-(methoxymethyl)phenyl]methyl}benzamide]	128%	165%	–	–	–
COCc1ccc(CNC(=O)c2c(F)cccc2Cl)cc1F [Example 10, 2-Chloro-6-fluoro-N-{[3-fluoro-4-(methoxymethyl)phenyl]methyl}benzamide]	125%	168%	–	–	–
O=C(NCc1ccc2c(c1)OCO2)c1c(Cl)cccc1Cl [Comparative Example 1, N-[(2H-1,3-Benzodioxol-5-yl)methyl]-2,6-dichlorobenzamide, reference compound]	137%	175%	produces reactive metabolites as much as clozapine	–	–
COCc1ccc(CNC(=O)c2c(Cl)cccc2Cl)cc1C [Example 4, 2,6-Dichloro-N-{[4-(methoxymethyl)-3-methylphenyl]methyl}benzamide]	136%	175%	–	–	–
COCc1ccc(CNC(=O)c2c(Cl)cccc2Cl)cc1 [Example 3, 2,6-Dichloro-N-[4-(methoxymethyl)benzyl]benzamide]	117%	156%	–	–	–
COCc1ccc(CNC(=O)c2ccccc2Br)cc1F [Example 7, 2-Bromo-N-{[3-fluoro-4-(methoxymethyl)phenyl]methyl}benzamide]	119%	156%	–	–	–
COCc1ccc(CNC(=O)c2c(F)cccc2F)cc1F [Example 13, 2,6-Difluoro-N-{[3-fluoro-4-(methoxymethyl)phenyl]methyl}benzamide]	114%	143%	–	–	–
COCc1ccc(CNC(=O)c2c(Cl)cccc2Br)cc1F [Example 5, 2-Bromo-6-chloro-N-{[3-fluoro-4-(methoxymethyl)phenyl]methyl}benzamide]	129%	168%	–	–	–
COCc1ccc(CNC(=O)c2c(Cl)cccc2Cl)cc1F [Example 1, 2,6-Dichloro-N-{[3-fluoro-4-(methoxymethyl)phenyl]methyl}benzamide]	138%	179%	–	6.8 ± 1.0**	1.6 ± 0.2
COCc1ccc(CNC(=O)c2c(Cl)cccc2C(C)C)cc1F [Example 12, 2-Chloro-N-[3-fluoro-4-(methoxymethyl)benzyl]-6-isopropylbenzamide]	136%	175%	–	–	–
